Test results as given in article PMC8881501, “Identification of SARS-CoV-2 inhibitors targeting Mpro and PLpro using in-cell-protease assay” (Communications Biology, 2022).
Several values for one entry are separate records, joined by “and”; a condition that tells them apart may be missing. Equal values may be shown once. Read-outs that look alike come from different tables or passages of the source. Non-standard residues stand in square brackets, D forms with d. Residues, ends and D or L forms follow the SMILES beside them. Nle = CCCC[C@H](N)C(=O)O

System: SARS-CoV-2 delta variant
Assay type: cell-based
Conditions: Huh 7.5, replicates

Row | Structure (SMILES) | virus titer of delta variant, Fig 6B data (single drug 0.01 μM) | virus titer of delta variant, Fig 6B data (single drug 0.1 μM) | virus titer of delta variant, Fig 6B data (single drug 1 μM)
1 | CCCC[C@@H](C=O)NC(=O)[C@H](CC(C)C)NC(=O)[C@H](CC(C)C)NC(C)=O [MG-101] (Ac-Leu-Leu-[Nle]-aldehyde) | 640000 and 800000 and 400000 | 400000 and 960000 and 800000 | 240000 (2×) and 160000
2 | N[C@@H](CC(=O)N1CCn2c(nnc2C(F)(F)F)C1)Cc1cc(F)c(F)cc1F [Sitagliptin] | 960000 and 720000 and 480000 | 720000 and 400000 and 560000 | 560000 and 720000 and 64000
